# Test results reported in patent publication US20220183972A1, “NANOEMULSION HYDROPHOBIC […]” (VERTOSA INC., priority 2018, published 2022).
# Test: not given
# Conditions: Span surfactants, Example 10; cited from earlier work
row,Molecule,HLB
1,Span 40,6.7
2,Span 60,4.7
3,Span 80,4.3
4,Span 120,4.7

# Same assay, conditions: Table 1; cited from earlier work
row,Molecule,HLB
1,Polyglyceryl-6 Stearate,9
2,Polyglyceryl-6 oleate,9
3,Tween 81,10
4,Vitamin E TPGS 200,6.3
5,Vitamin E TPGS 300,8.2
6,Vitamin E TPGS 2000,16.5
7,Vitamin E TPGS 4000,18.1

# Test: Emulsion droplet size by DLS, Polyglyceryl-4 main surfactants
# Format: physicochemical
# Conditions: 1 g cannabinoid oil, 0.7 g olive oil, 2.5 g Polyglyceryl-4 surfactant, 1.5 g sunflower lecithin, 40 g water, 80% amplitude
row,Molecule,final emulsion droplet average size [nm]
1,Polyglyceryl-4 Caprate,365
2,Polyglyceryl-4 Isostearate,371
3,Polyglyceryl-4 Oleate,506

# Test: not given
# Conditions: upon eating cannabis; cited from earlier work
row,Molecule,THC absorbed
1,"CCCCCc1cc(O)c2c(c1)OC(C)(C)[C@@H]1CCC(C)=C[C@@H]21 [THC, Tetrahydrocannabinol]",8-15%

# Same assay, conditions: upon smoking cannabis; cited from earlier work
row,Molecule,THC absorbed by lung
1,"CCCCCc1cc(O)c2c(c1)OC(C)(C)[C@@H]1CCC(C)=C[C@@H]21 [THC, Tetrahydrocannabinol]",2-45%
